Measured values: patent US7045512B2 (priority 2003, dated 2006)

Columns and labels:
Sclerotium rolfsii = assay type: cell-based
Uromyces appendiculatus = test: Foliar spray for the control of bean rust; assay type: in vivo; conditions: 300 ppm, screened against rust on beans as foliar-applied eradicant
Protocol: Foliar Spray for the Control of Bean Rust Caused by Uromyces appendiculatus
Technical grade material at defined ppm rates (w/v) in an acetone:water mixture (1:9) containing 0.1% Tween 20 (v/v) is sprayed to near run-off onto 10-days-old greenhouse-grown Pinto bean plants (var. “Othello”) in the second leaf stage. Treated plants are inoculated within 24 hours with an aqueous suspension of approximately 20,000 uredospores of Uromyces appendiculatus harvested from rust-infected plants. Inoculated plants are placed into a high humidity chamber for 24 hr and then transferred to the greenhouse for two weeks for disease development. Disease severity is examined and the % control is calculated as [% disease on untreated plants−% disease on treated plants]/% disease on untreated plants. The results of these tests are shown in Table 2A below under the heading “Foliar Application—Bean Rust”.

Colletotrichum gossypii = assay type: cell-based
[1] = test system: Erysiyphe graminis f.sp. hordei; test: Foliar spray for the control of barley powdery mildew; assay type: in vivo; conditions: 300 ppm, greenhouse foliar spray, barley plants
Protocol: Foliar Spray for the Control of Barley Powdery Mildew caused by Erysiyphe graminis f.sp. hordei
Technical grade material at defined ppm rates (w/v) in an acetone:water mixture (1:9) containing 0.1% Tween 20 (v/v) is sprayed to near run-off onto 7-days-old greenhouse-grown barley plants (var. “Robust”) at the cotyledon stage. Treated plants are inoculated within 24 hours by brushing mildew-infected plants over the treated plants. Inoculated plants are kept in the greenhouse for 6–8 days for disease development. Disease severity is examined and the % control is calculated as [% disease on untreated plants−% disease on treated plants]/% diseases in untreated plants. The results of these tests are shown in Table 2A below under the heading “Foliar Application—Barley Powdery Mildew”.

Rhizoctonia solani = test: microbe, parasite or virus in culture; assay type: cell-based
Botrytis cinerea = test: microbe, parasite or virus in culture; assay type: cell-based
Phytophthora infestans [2] = test: microbe, parasite or virus in culture; assay type: cell-based; conditions: in vitro, rate 100 ppm, 48 hours
Barley Powdery Mildew = test: Soil drench for the control of barley powdery mildew; assay type: in vivo, Erysiyphe graminis f.sp. hordei; conditions: 300 ppm, greenhouse soil drench
Protocol: (§1) Soil Drench for the Control of Barley or Cucumber Powdery Mildew
(§2) Technical grade material formulated as described for foliar sprays is dispensed at defined rates (ml/cm^3) into the soil in the pots for barley and cucumber in the stages as described for the foliar sprays. Treated plants are inoculated, within 24 hours with the respective powdery mildew species as described for the foliar spray tests. Inoculated plants are kept in the greenhouse for 6–8 days for disease development. Disease severity is examined and the % control is calculated as [% disease on untreated plants−% disease on treated plants]/% disease on untreated plants. The results of these tests are shown in Table 2B below under the heading “Drench Application—Barley Powdery Mildew” and “Drench Application—Cucumber Powdery Mildew”.

Erysiyphe polygoni = test: Foliar spray for the control of bean powdery mildew; assay type: in vivo; conditions: 300 ppm, greenhouse foliar spray, Pinto bean plants
Protocol: Foliar Spray for the Control of Bean Powdery Mildew Caused by Erysiyphe polygoni
Technical grade material at defined ppm rates (w/v) in an acetone:water mixture (1:9) containing 0.1% Tween 20 (v/v) is sprayed to near run-off onto greenhouse-grown Pinto bean plants (var. “Othello”) in the second leaf stage. Treated plants are inoculated within 24 hours by brushing mildew-infected plants over treated plants. Inoculated plants are kept in the greenhouse for two weeks for disease development. Disease severity is examined and the % control is calculated as [% disease on untreated plants−% disease on treated plants]/% disease on untreated plants. The results of these tests are shown in Table 2A below under the heading “Foliar Application—Bean Powdery Mildew”.

Cucumber Powdery Mildew = test: Soil drench for the control of cucumber powdery mildew; assay type: in vivo; conditions: 300 ppm, greenhouse soil drench
Protocol: as §1, §2

Helminthosporium sativum = test: Foliar spray for the control of barley blotch; assay type: in vivo; conditions: 300 ppm, greenhouse foliar spray, barley plants
Protocol: Foliar Spray for the Control of Barley Blotch Caused by Helminthosporium sativum
Technical grade material at defined ppm rates (w/v) in an acetone:water mixture (1:9) containing 0.1% Tween 20 (v/v) is sprayed to near run-off onto 7-days-old greenhouse-grown barley plants (var. “Robust”) at the cotyledon stage. Treated plants are inoculated within 24 hours from spraying with an aqueous suspension of approximately 15,000 conidia/ml of Helminthosporium sativum grown on artificial medium. Inoculated plants are placed into a high humidity chamber for 24 hr and then transferred to the greenhouse for 4–5 days for disease development. Disease severity is examined and the % control is calculated as [% disease on untreated plants−% disease on treated plants]/% disease on untreated plants.
The results of these tests are shown in Table 2A below under the heading “Foliar Application—Barley Blotch”.

Fusarium nivale = test: microbe, parasite or virus in culture; assay type: cell-based
Pythium ultimum = test: microbe, parasite or virus in culture; assay type: cell-based
Sclerotinia minor = assay type: cell-based
[3] = test system: Cercosporidium personatum; assay type: cell-based
Phytophthora infestans [4] = assay type: in vivo; conditions: 300 ppm, greenhouse foliar spray, tomato plants

Row | Structure (SMILES) | Percent Control Sclerotium rolfsii (Sclerotium rolfsii) | Foliar Application (Percent Control) Bean Rust (Uromyces appendiculatus) | Percent Control Colletotricum gossypii (Colletotrichum gossypii) | Foliar Application (Percent Control) Barley Powdery Mildew [1] | Percent Control Rhizoctonia solani (Rhizoctonia solani) | Percent Control Botrytis cinerea (Botrytis cinerea) | Percent Control Phytophthora infestants (Phytophthora infestans [2]) | Drench Application (Percent Control) Barley Powdery Mildew (Barley Powdery Mildew) | Foliar Application (Percent Control) Bean Powdery Mildew (Erysiyphe polygoni) | Drench Application (Percent Control) Cucumber Powdery Mildew (Cucumber Powdery Mildew) | Foliar Application (Percent Control) Barley Blotch (Helminthosporium sativum) | Percent Control Fusarium nivale (Fusarium nivale) | Percent Control Pythium ultimum (Pythium ultimum) | Percent Control Sclerotinia minor (Sclerotinia minor) | Percent Control Cercosporidium personatum [3] | Foliar Application (Percent Control) Tomato Late Blight (Phytophthora infestans [4])
1 | COC(=O)NNc1ccc(Oc2cccnc2)cc1 [Compound 5] | 100% | 0(e) % | 100% | 0% | 0% | 25% | 20% | 0% | 0% | 0% | 0% | 90% | 70% | 100% | 0% | –
2 | CCC(C)OC(=O)NN(C(=O)C(F)(F)F)c1ccc(Sc2ccccc2)cc1 (stereo not drawn) [Compound 4] | – | 0(e) % | 15% | 0% | 95% | 75% | 100% | 0% | 88% | 0% | 0% | 50% | 15% | 50% | 65% | 0%
